From the supplement of paper PMC10307832

Assays:
Test in all cases: relative viability (nuclei count vs DMSO), 5 days (fraction); higher = more cells survive
[1] = compound: C/C(=N\NC(=S)N1CCC1)/C2=CC=CC=N2 + O=C(c1cc(Cc2n[nH]c(=O)c3ccccc23)ccc1F)N1CCN(C(=O)C2CC2)CC1 [Olaparib] (partner 8 µM)
Method in brief: (§1)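 Cells from lung cancer lines were seeded into 1536-well plates and, one day later, dosed by pin tool. Treatments were either a single drug or a fixed dose of an anchor drug with five library-drug doses (not always all listed) in √10 steps. After 5 days, nuclei were stained in a one-step fixation (final 0.05% Triton X-100, 1% formaldehyde, 1 ug/ml Hoechst) and counted on 4× images, and relative viability is the treated-to-vehicle nuclei ratio, as the median of duplicate plates.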

[2] = compound: C/C(=N\NC(=S)N1CCC1)/C2=CC=CC=N2 + CC(=O)c1c(C)c2cnc(Nc3ccc(N4CCNCC4)cn3)nc2n(C2CCCC2)c1=O [Palbociclib] (partner 0.5 µM)
Method in brief: as §1

[3] = compound: C/C(=N\NC(=S)N1CCC1)/C2=CC=CC=N2 + Cc1nc(NC(=O)N2CCC[C@H]2C(N)=O)sc1-c1ccnc(C(C)(C)C(F)(F)F)c1 [Alpelisib] (partner 2 µM)
Method in brief: as §1

[4] = compound: C/C(=N\NC(=S)N1CCC1)/C2=CC=CC=N2 + Nc1nc2[nH]cc(CCc3ccc(C(=O)N[C@@H](CCC(=O)O)C(=O)O)cc3)c2c(=O)[nH]1 [Pemetrexed] (partner 0.2 µM)
Method in brief: as §1

Row | Cell Line | relative viability ([1]; first compound 0.05 µM) | relative viability ([1]; first compound 0.1581 µM) | relative viability ([1]; first compound 0.5 µM) | relative viability ([1]; first compound 1.581 µM) | relative viability ([1]; first compound 5 µM) | relative viability ([2]; first compound 0.05 µM) | relative viability ([2]; first compound 0.1581 µM) | relative viability ([2]; first compound 0.5 µM) | relative viability ([2]; first compound 1.581 µM) | relative viability ([2]; first compound 5 µM) | relative viability ([3]; first compound 0.05 µM) | relative viability ([3]; first compound 0.1581 µM) | relative viability ([3]; first compound 0.5 µM) | relative viability ([3]; first compound 1.581 µM) | relative viability ([3]; first compound 5 µM) | relative viability ([4]; first compound 0.05 µM) | relative viability ([4]; first compound 0.1581 µM) | relative viability ([4]; first compound 0.5 µM) | relative viability ([4]; first compound 1.581 µM) | relative viability ([4]; first compound 5 µM)
1 | 201T | 0.487 | 0.871 | 0.349 | 0.241 | 0.247 | 0.27 | 0.351 | 0.307 | 0.213 | 0.205 | 0.697 | 0.994 | 0.647 | 0.476 | 0.4 | 0.292 | 0.315 | 0.289 | 0.294 | 0.286
2 | A549 | 0.0312 | 0.0426 | 0.0325 | 0.0517 | 0.0367 |  |  |  |  |  | 0.0613 | 0.0588 | 0.054 | 0.0318 | 0.0406 |  |  |  |  | 
3 | A-427 | 0.2 | 0.191 | 0.151 | 0.154 | 0.167 | 0.194 | 0.224 | 0.205 | 0.174 | 0.181 | 0.136 | 0.739 | 0.142 | 0.101 | 0.11 | 0.191 | 0.209 | 0.195 | 0.151 | 0.188
4 | ABC-1 | 0.349 | 0.338 | 0.301 | 0.345 | 0.438 | 0.344 | 0.412 | 0.328 | 0.239 | 0.275 | 0.371 | 0.226 | 0.234 | 0.27 | 0.281 |  |  |  |  | 
5 | BEN | 0.292 | 0.259 | 0.271 | 0.272 | 0.283 | 0.346 | 0.332 | 0.336 | 0.283 | 0.313 | 0.195 | 0.194 | 0.266 | 0.232 | 0.198 | 0.256 | 0.318 | 0.262 | 0.279 | 0.311
6 | CAL-12T | 0.16 | 0.149 | 0.185 | 0.171 | 0.131 | 0.0958 | 0.145 | 0.131 | 0.109 | 0.122 | 0.148 | 0.146 | 0.126 | 0.127 | 0.121 | 0.14 | 0.132 | 0.173 | 0.143 | 0.122
7 | COR-L23 | 0.107 | 0.0921 | 0.0895 | 0.0916 | 0.105 | 0.0993 | 0.12 | 0.0934 | 0.0924 | 0.0839 | 0.113 | 0.123 | 0.097 | 0.0558 | 0.0865 | 0.149 | 0.169 | 0.163 | 0.105 | 0.123
8 | COR-L 105 | 0.365 | 0.381 | 0.374 | 0.337 | 0.318 | 0.353 | 0.358 | 0.349 | 0.316 | 0.318 | 0.301 | 0.266 | 0.275 | 0.222 | 0.217 | 0.399 | 0.389 | 0.326 | 0.358 | 0.335
9 | Calu-6 | 0.101 | 0.133 | 0.141 | 0.118 | 0.122 |  |  |  |  |  | 0.141 | 0.151 | 0.148 | 0.151 | 0.124 |  |  |  |  | 
